Converted amounts (≈) assume the structure as drawn.
Assays:
[1] = Test of solubility of GLPG1205 in culture medium for incubations; type: physicochemical; details: culture medium for incubation; final DMSO percentage 0.4%; read-out: limit of solubility in culture medium for incubations
Description: Solubility and cytotoxicity experiments were performed prior to incubation of GLPG1205 with cells.
Test of Solubility Prior to incubation of GLPG1205 with cells, a preliminary test of solubility was performed. Various stock solutions of GLPG1205 in dimethylsulfoxide (DMSO) were prepared. Different solutions were prepared by diluting the stock solutions in culture medium for incubation to obtain 100, 200, 250, 400 and 500 µM with different final percentages of solvent (maximum 0.5% DMSO, volume/volume [v/v]).

CYP1A2 = assay: in vitro; details: human
Description: GLPG1205 was incubated with monolayer cultures of fresh human hepatocytes from 3 individual donors for 24 hours (messenger ribonucleic acid [mRNA] analysis) or 48 hours (enzyme activity) at 6 different concentrations: 0.5, 1, 5, 10, 50, and 100 μM (0.19, 0.38, 1.89, 3.78, 18.9, and 37.8 μg/mL, respectively). All incubations contained 0.4% dimethylsulfoxide (DMSO). Incubation with 50 μM omeprazole containing 0.1% DMSO was used as a positive control. Incubations with 0.1% and 0.4% DMSO alone were used as negative controls.
Following a 48‐hour incubation period, an enzymatic assay assessed phenacetin O‐deethylase (a CYP1A2 substrate) activity by measuring the CYP1A2‐dependent metabolite acetaminophen in supernatants. Acetaminophen was quantified using liquid chromatography coupled with tandem mass spectrometry (LC‐MS/MS).
A concentration‐dependent increase in mRNA of <100% was considered a negative finding when the increase in mRNA was less than 20% of the response of the positive control.
Incubation for CYP1A2 Induction Experiment The incubations for enzyme activity measurements were performed with cell monolayers in 96-well plates and the incubations for mRNA measurements were performed with cell monolayers in 24-well plates.^3
GLPG1205 was incubated with monolayer culture of human fresh hepatocytes from 3 individual donors for 24 or 48 hours, for messenger ribonucleic acid (mRNA) analysis and enzyme activity, respectively, at 6 different concentrations (n = 3): 0.1, 0.5, 1, 5, 10 and 50 µM (0.038, 0.19, 0.38, 1.89, 3.78 and 18.9 µg/mL, respectively). […] Incubation with 50 µM omeprazole containing 0.1% DMSO was used as a positive control. Incubations with 0.1% and 0.4% DMSO alone were used as negative controls. The CMI was William’s E medium with hepatocytes induction additives. Cells were cultured at 37°C in a humidified carbon dioxide/air (5%/95%) atmosphere. Culture media were renewed daily in all wells.
Enzymatic Assay At the end of the 48-hour incubation period, CYP1A2 enzyme activity was measured in intact cells by incubating with phenacetin, a probe substrate. Cells were first washed with minimum essential medium (MEM) devoid of phenol red to remove remaining test compounds or reference inducers and were then incubated for 2 hours at 37°C with 200 µM phenacetin in MEM devoid of phenol red and containing 0.1% DMSO. Assessment of phenacetin O-deethylase activity in supernatants was carried out by measuring the CYP1A2-dependent metabolite acetaminophen. Cell protein content was also determined; protein content was measured according to the bicinchoninic acid method^4 and calculated using a bovine serum albumin standard curve.
A 2-fold dilution of the specimens in a solution of 1 µM D4-acetaminophen in water with 0.1% formic acid was performed and 20 µL were injected into the LC-MS/MS system. The mobile phase consisted of ammonium acetate 5 mM in water (A) and formic acid 0.3% in acetonitrile/methanol, 50/50, v/v. The following gradient was applied with a 1.5 mL/min flow rate and an oven temperature of 40°C: 98% A from 0 minutes; 70% A from 2.5 minutes; 1% A from 2.6 minutes; 1% A from 3.2 minutes; 98% A from 3.25 minutes; 98% A from 4.5 minutes. In this condition, the retention time of acetaminophen was approximately 2.33 minutes. Controls were performed by injecting calibration standards at the beginning and end of each run. […]

[2] = Phase 1 drug-drug interaction study: safety and tolerability (adverse events)
Description: The safety assessment was based on adverse events (AEs), vital signs, 12‐lead electrocardiogram (ECG), physical examinations, and safety laboratory tests. AEs were monitored for the duration of the study. All safety assessments were undertaken at the screening visit, on days 13 and 14, and at the follow‐up visit. In addition, safety assessments were undertaken on day 1 (vital signs, 12‐lead ECG, and clinical laboratory tests) and day 7 (physical examination, vital signs, and clinical laboratory tests).
The safety population comprised all randomized subjects who received at least 1 dose of study drug.

[3] = Phenacetin O-deethylase activity, fold induction
[4] = GLPG1205 100 mg once a day + CYP450 substrates, n = 14
[5] = GLPG1205 100 mg once a day alone, n = 14

Compound: O=c1nc(OC[C@@H]2COCCO2)cc2n1CCc1cc(C#CC3CC3)ccc1-2 [GLPG1205, 9‐cyclopropylethynyl‐2‐[(S)‐1‐(1,4)dioxan‐2‐ylmethoxy]‐6,7‐dihydropyrimido[6,1‐a]isoquinolin‐4‐one]
- solubility at 24 h [1]: 100 µM (≈ 37.8 µg/mL)
- Phenacetin O-deethylase activity, fold induction (CYP1A2; 48 h, 50 µM): 0.367 ± 0.021 fold
- fold induction at 48 h, 0.1 µM (CYP1A2; [3]): 1.64 ± 0.256
- fold induction at 48 h, 50 µM (CYP1A2; [3]): 0.335 ± 0.033
- increases in CYP1A2 activity compared with the negative control (0.4% DMSO) (CYP1A2; hepatocytes, 48 h): ≤ 2 fold
- increases in CYP1A2 activity, % of the positive control (omeprazole) (CYP1A2; hepatocytes, 48 h): lower than 40%
- Any TEAE [2, 4]: 3 (21.4) n (%)
- Gastrointestinal disorders [2, 4]: 0 n (%)
- General disorders and general administration‐site conditions [2, 4]: 0 n (%)
- Headache [2, 4]: 1 (7.1) n (%)
- Influenza‐like illness [2, 4]: 0 n (%)
- Musculoskeletal and connective tissue disorders [2, 4]: 1 (7.1) n (%)
- Myalgia [2, 4]: 1 (7.1) n (%)
- Nausea [2, 4]: 0 n (%)
- Nervous system disorders [2, 4]: 1 (7.1) n (%)
- Oropharyngeal pain [2, 4]: 1 (7.1) n (%)
- Pain [2, 4]: 0 n (%)
- Respiratory, thoracic, and mediastinal disorders [2, 4]: 1 (7.1) n (%)
- Any TEAE [2, 5]: 9 (64.3) n (%)
- Back pain [2, 5]: 0 n (%)
- Disturbance in attention [2, 5]: 2 (14.3) n (%)
- Eye disorders [2, 5]: 1 (7.1) n (%)
- Fatigue [2, 5]: 1 (7.1) n (%)
- Flatulence [2, 5]: 1 (7.1) n (%)
- Flushing [2, 5]: 1 (7.1) n (%)
- Gastroenteritis [2, 5]: 1 (7.1) n (%)
- Gastrointestinal disorders [2, 5]: 1 (7.1) n (%)
- General disorders and general administration‐site conditions [2, 5]: 1 (7.1) n (%)
- Headache [2, 5]: 5 (35.7) n (%)
- Hyperhidrosis [2, 5]: 0 n (%)
- Infections and infestations [2, 5]: 1 (7.1) n (%)
- Lacrimation increased [2, 5]: 1 (7.1) n (%)
- Musculoskeletal and connective tissue disorders [2, 5]: 1 (7.1) n (%)
- Myalgia [2, 5]: 1 (7.1) n (%)
- Nasopharyngitis [2, 5]: 0 n (%)
- Nervous system disorders [2, 5]: 8 (57.1) n (%)
- Oropharyngeal pain [2, 5]: 1 (7.1) n (%)
- Paresthesia [2, 5]: 1 (7.1) n (%)
- Presyncope [2, 5]: 1 (7.1) n (%)
- Rash [2, 5]: 0 n (%)
- Respiratory, thoracic, and mediastinal disorders [2, 5]: 1 (7.1) n (%)
- Skin and subcutaneous tissue disorders [2, 5]: 0 n (%)
- Vascular disorders [2, 5]: 1 (7.1) n (%)
- Vision blurred [2, 5]: 0 n (%)
- moderate presyncope, subjects ([2]; GLPG1205 alone): 1 n
- moderate oropharyngeal pain, subjects ([2]; GLPG1205 plus CYP450 substrates): 1 n
- deaths or serious AEs ([2]; during the study): no deaths or serious AEs
- laboratory safety tests, ECG, vital signs, physical examination ([2]; during the study): No clinically significant trends or abnormalities

Source: publication PMC8453848, “Effect of GLPG1205, a GPR84 Modulator, on CYP2C9, CYP2C19, and CYP1A2 Enzymes: In Vitro and Phase 1 Studies” (Clinical Pharmacology in Drug Development, 2021)
